From ChEMBL document CHEMBL2311357, “Aminoalkyl derivatives of guanidine diaromatic minor groove binders with antiprotozoal activity” (J Med Chem, 2013)

How the values were obtained:
L6 = assay: Cytotoxicity against rat L6 cells after 70 hrs by resazurin reduction assay; assay type: cell-based; conditions: L6, 70 h
Plasmodium falciparum = assay: Antimalarial activity against erythrocytic stage of Plasmodium falciparum NF54 assessed as incorporation of [3H]hypoxanthine after 48 hrs by scintillation counting analysis; assay type: functional, organism-based
Salmonidae = assay: Binding affinity to salmon sperm DNA in 10 mM phosphate buffer assessed as change in melting temperature at 15 uM by thermal denaturation assay
[1] = Selectivity index, ratio of IC50 for rat L6 cells to IC50 for Plasmodium falciparum NF54; assay type: toxicity, cell-based; conditions: L6 cells versus Plasmodium falciparum NF54, read-out: Ratio IC50
[2] = tested on: Trypanosoma brucei rhodesiense; assay: Antitrypanosomal activity against Trypanosoma brucei rhodesiense STIB900 after 70 hrs by resazurin reduction assay; assay type: functional, organism-based; conditions: STIB900, 70 h
[3] = Selectivity index, ratio of IC50 for rat L6 cells to IC50 for Trypanosoma brucei rhodesiense STIB900; assay type: toxicity, cell-based; conditions: L6 cells versus Trypanosoma brucei rhodesiense STIB900, read-out: Ratio IC50
[4] = Binding affinity to poly(dA-dT) DNA (unknown origin) in Tris-Hcl buffer assessed as change in melting temperature
DNA [5] = assay: Binding affinity to calf thymus DNA in MES buffer assessed as change in melting temperature; assay type: nucleic-acid assay; conditions: Bos taurus
DNA [6] = assay: Binding affinity to calf thymus DNA in Tris-Hcl buffer assessed as change in melting temperature; assay type: nucleic-acid assay; conditions: Bos taurus
unidentified = assay: Binding affinity to poly(dA-dT) DNA (unknown origin) in PIPES buffer assessed as change in melting temperature

| Compound | IC50 (L6) | IC50 (Plasmodium falciparum) | ΔTm (Salmonidae) | selectivity ratio [1] | also measured |
| --- | --- | --- | --- | --- | --- |
| N=C(N)Nc1ccc(Oc2ccc(NC(=O)CCCN)cc2)cc1 | 173 µM | 880 nM | 1.2 °C | 197 |  |
| N=C(N)Nc1ccc(CCc2ccc(NC(=O)CCCCN)cc2)cc1 | 109 µM | 1060 nM | 5.1 °C | 103 | IC50 [2]: 20.2 µM; selectivity ratio [3]: 5 |
| N=C(N)Nc1ccc(Nc2ccc(NC(=O)CCCCN)cc2)cc1 | 223 µM | 1460 nM | 6.1 °C | 153 | IC50 [2]: 57.7 µM; selectivity ratio [3]: 4 |
| N=C(N)Nc1ccc(Nc2ccc(NC(=O)CCCCCCCCCCN)cc2)cc1 | 157 µM | 3790 nM | 3.1 °C | 41 | IC50 [2]: 85.4 µM; selectivity ratio [3]: 2 |
| N=C(N)Nc1ccc(Oc2ccc(NC(=O)CCCCCCCN)cc2)cc1 | 136 µM | 149 nM | 2.1 °C | 913 | IC50 [2]: 31.9 µM; selectivity ratio [3]: 4 |
| N=C(N)Nc1ccc(Nc2ccc(N)cc2)cc1 |  |  | 2.1 °C |  |  |
| N=C(N)Nc1ccc(Oc2ccc(N)cc2)cc1 |  |  | 2 °C |  |  |
| N=C(N)Nc1ccc(CCc2ccc(NC(=O)CCCN)cc2)cc1 | 133 µM | 1140 nM | 5 °C | 116 | IC50 [2]: 13.3 µM; selectivity ratio [3]: 10 |
| N=C(N)Nc1ccc(Cc2ccc(NC(=O)CCCCN)cc2)cc1 | 105 µM | 589 nM | 4 °C | 179 |  |
| N=C(N)Nc1ccc(C(=O)c2ccc(NC(=O)CCCCCCCCCCCN)cc2)cc1 | 10.6 µM | 1980 nM | 2.1 °C | 5 |  |
| N=C(N)Nc1ccc(Cc2ccc(NC(=O)CCCCCCCN)cc2)cc1 |  |  | 0.1 °C |  |  |
| N=C(N)Nc1ccc(Cc2ccc(NC(=O)CCCCCCCCCCCN)cc2)cc1 | 23.8 µM | 2320 nM | 0.1 °C | 10 |  |
| N=C(N)Nc1ccc(C(=O)c2ccc(NC(=O)CCCN)cc2)cc1 |  |  | 5.1 °C |  |  |
| Nc1nc(N)nc(Nc2ccc([As]3SCC(CO)S3)cc2)n1 (configuration not stated) [MELARSOPROL] |  |  |  |  | IC50 [2]: 0.0055 µM |
| N=C(N)Nc1ccc(C(=O)c2ccc(NC(=O)CCCCCCCCCCN)cc2)cc1 |  |  | 2 °C |  |  |
| N=C(N)Nc1ccc(Nc2ccc(NC(=O)CCCCCCCN)cc2)cc1 |  |  | 2 °C |  |  |
| N=C(N)Nc1ccc(CCc2ccc(NC(=O)CCCCCCCN)cc2)cc1 |  |  | 2 °C |  |  |

| Compound | IC50 (L6) | IC50 (Plasmodium falciparum) | ΔTm (Salmonidae) | selectivity ratio [1] | also measured |
| --- | --- | --- | --- | --- | --- |
| N=C(N)Nc1ccc(Cc2ccc(N)cc2)cc1 |  |  | 3 °C |  |  |
| N=C(N)Nc1ccc(Nc2ccc(NC(=N)N)cc2)cc1 |  |  | 8 °C |  |  |
| N=C(N)Nc1ccc(Cc2ccc(NC(=O)CCCN)cc2)cc1 | 207 µM | 2620 nM | 1 °C | 79 |  |
| N=C(N)Nc1ccc(Nc2ccc(NC(=O)CCCCCCCCCCCN)cc2)cc1 | 11.9 µM | 2710 nM | 5 °C | 4 | IC50 [2]: 4.06 µM; selectivity ratio [3]: 3 |
| N=C(N)Nc1ccc(Nc2ccc(NC(=O)CCCN)cc2)cc1 | 127 µM | 1200 nM | 1 °C | 106 |  |
| N=C(N)Nc1ccc(Cc2ccc(NC(=O)CCCCCCCCCCN)cc2)cc1 | 30.3 µM | 2020 nM | 0 °C | 15 |  |
| N=C(N)Nc1ccc(C(=O)c2ccc(N)cc2)cc1 |  |  | 0 °C |  |  |
| N=C(N)Nc1ccc(CCc2ccc(NC(=O)CCCCCCCCCCN)cc2)cc1 | 70.6 µM | 5790 nM | 1.1 °C | 12 |  |
| N=C(N)Nc1ccc(Oc2ccc(NC(=O)CCCCCCCCCCCN)cc2)cc1 | 22.4 µM | 1710 nM | 2 °C | 13 |  |
| N=C(N)Nc1ccc(CCc2ccc(N)cc2)cc1 |  |  | 0.1 °C |  |  |
| N=C(N)Nc1ccc(C(=O)c2ccc(NC(=N)N)cc2)cc1 |  |  | 4.2 °C |  |  |
| N=C(N)Nc1ccc(CCc2ccc(NC(=O)CCCCCCCCCCCN)cc2)cc1 |  |  | 1.1 °C |  |  |
| N=C(N)Nc1ccc(C(=O)c2ccc(NC(=O)CCCCN)cc2)cc1 | 140 µM | 2550 nM | 5.2 °C | 55 | IC50 [2]: 121 µM; selectivity ratio [3]: 1 |
| N=C(N)Nc1ccc(Oc2ccc(NC(=O)CCCCN)cc2)cc1 | 33.5 µM | 106 nM | 6 °C | 316 | IC50 [2]: 13.1 µM; selectivity ratio [3]: 3 |
| N=C(N)Nc1ccc(Oc2ccc(NC(=O)CCCCCCCCCCN)cc2)cc1 | 62.3 µM | 1410 nM | 2 °C | 44 |  |
| N=C(N)c1ccc(OCCCCCOc2ccc(C(=N)N)cc2)cc1 [PENTAMIDINE] | 1.51 µM | 27 nM |  | 56 | IC50 [2]: 0.002 µM; selectivity ratio [3]: 755; ΔTm [4]: 11.1 °C; ΔTm (DNA [5]): 10.6 °C; ΔTm (DNA [6]): 20.6 °C; ΔTm (unidentified): 12.8 °C |
| N=C(N)Nc1ccc(Cc2ccc(NC(=N)N)cc2)cc1 |  |  | 8.1 °C |  |  |
